Experimental findings from patent publication US20040180855A1, “Methods of treating thrombosis with reduced risk of increased bleeding times” (priority 2003, published 2004) are described below.

A value given as a limit tells only on which side of the number the result lay.

For one series, the target named is T1, FXIIa (Homo sapiens, UniProt P00748).
T1 construct: purchased American Diagnostica
Kind of series: Selectivity assay FXIIa. The class given is biochemical. The following applies: Table 3.

Another series has as its system rat plasma. Description: APTT clotting time, rat plasma. The class given is biochemical. The text has this:
The term “APTT” as used herein means “activated partial thromboplastin times” which is intended to refer to the time elapsed between the formation of an assay solution and the detection of clot formation in the assay solution with use of an APTT assay, i.e., an assay employing an intrinsic pathway activator, such as micronized silica, and a phospholipid component of a thromboplastin reagent (without tissue factor protein) for evaluating coagulation associated with the intrinsic pathway.
PT and APTT clotting times were determined as described in Balasubramanian et al., J. Med. Chem., Vol. 36 (1993), at pp. 300-03, incorporated herein by reference. The whole blood aggregation response of rat platelets to collagen was determined using the impedance procedure for a Model 560-CA Chrono-Log aggregometer (Havertown, Pa.).

Series [1] has as its system thrombosis and bleeding time in anesthetized rats. Description: Differential effect on thrombosis inhibition and bleeding time prolongation (FIG. 7). The series is classed as in vivo, rat. The following applies: versus thrombin and FXa inhibitors (16A, 16B). The procedure:
FIG. 7 reports an analysis of the differential effect on thrombosis inhibition and bleeding time prolongation in anesthetized rats for the Factor XIa inhibitor, as compared with the “direct acting” thrombin and FXa active site inhibitors, namely, compounds 16A and 16B (thrombin and FXa active site inhibitors). The thrombin inhibitor (open symbols), FXa inhibitor (dotted symbols) and FXIa inhibitor (line symbols) were tested for effects on arterial thrombosis (squares), venous thrombosis (triangles) and bleeding time (circles) in rat models. Compounds were administered as loading plus sustaining infusion and the total dose is given on the x-axis.

The next series has as its target T2, FIXa (Homo sapiens, UniProt P00740).
T2 construct: purchased American Diagnostica
Kind of series: Selectivity assay FIXa. The series is classed as biochemical. The following applies: Table 3.

In another series the target is T3, human α-thrombin (Homo sapiens, UniProt P00734).
T3 construct: Enzymatic activity of human α-thrombin (Sigma) was measured; purchased Sigma
Description: Selectivity assay thrombin. The series is classed as biochemical. As to conditions: Table 3.

In series [2] the test system is FeCl2-VT (vena cava thrombosis). Kind of series: Venous thrombosis, vessel injury model (FeCl2-VT). The following applies: rat FeCl2-VT. The series is classed as in vivo. The procedure:
General Surgical Preparation Male Sprague Dawley rats (310 to 390 g) were anesthetized with Na-pentobarbital (50 mg/kg i.p.). The left jugular vein was cannulated with PE-50 tubing for drug administration, and the trachea was intubated with PE-205 tubing to ensure airway patency. In some animals, a carotid artery was cannulated with PE-50 tubing to obtain blood samples, and a procedure was followed as described in Schumacher et al., “Comparison of Thrombin Active-Site and Exosite Inhibitors and Heparin in Experimental Models of Arterial and Venous Thrombosis and Bleeding,” J. Pharmacol. Exp. Therap., Vol. 267 (1993), at pp. 1237-42; Schumacher et al., Effects of Antithrombotic Drugs in a Rat Model of Aspirin-Insensitive Arterial Thrombosis, Thromb Haemostasis, Vol. 69 (1993), at pp. 509-514; or Schumacher et al., Effect of a Novel Thrombin Active-Site Inhibitor on Arterial and Venous Thrombosis, Eur J Pharmacol., Vol. 259 (1994), at pp. 165-171, each of which is incorporated herein by reference. In each procedure, a small organic compound effective for inhibiting Factor XIa, as described herein, or saline vehicle, was administered i.v. as a loading infusion over 5 min plus a sustaining infusion that was maintained until the end of the procedure. Compound doses are indicated for each procedure in mg/kg plus mg/kg/hr. The volume of test article was 1 mL/kg plus 1 mL/kg/hr, except the 24 mg/kg+24 mg/kg/hr dose of compound where volume was doubled. […] Statistical Analysis In the venous and arterial thrombosis procedures, treatment effects on thrombus weight, baseline blood flow, and average blood flow during thrombosis were determined by analysis of variance with Dunnett's test for comparison to the vehicle group. […] Treatment effects on bleeding times were determined by analysis of variance with Dunnett's test for comparison to the vehicle group. Both post-treatment and pre-treatment bleeding times and the relative bleeding time increases in sec were analyzed. […]

The test system of series [3] is mesenteric artery bleeding time. Kind of series: Mesenteric artery bleeding time (MABT) model. The class given is in vivo. The following applies: rat, i.v. 12+12 and 24+24 mg/kg+mg/kg/hr, pre- vs post-treatment, FIG. 6. The method, then:
Experimental Bleeding Time Two models of bleeding time were performed, namely, a renal cortex bleeding model (using template incision of the renal cortex), and a mesenteric artery bleeding model (using severance of small mesenteric arteries).
In the mesenteric artery bleeding time (MABT) model, the abdomen was opened via a midline incision and the small intestine was exteriorized. The jejunum was exposed, held in place with clamps and superfused with Ringer's solution maintained at 37° C. Small arteries that branch perpendicular to the mesenteric artery and course over the surface of the jejunum were observed through an SZH10 stereomicroscope (Olympus Corp., Lake Success, N.Y.). These vessels were punctured with a 30-gauge hypodermic needle and the time in sec from puncturing until bleeding stopped was recorded. Bleeding times were determined in 3-5 arteries before administration of test article and in 3-5 arteries 20 min after the start of test article infusion. […]
Statistical Analysis In the venous and arterial thrombosis procedures, treatment effects on thrombus weight, baseline blood flow, and average blood flow during thrombosis were determined by analysis of variance with Dunnett's test for comparison to the vehicle group. […] Treatment effects on bleeding times were determined by analysis of variance with Dunnett's test for comparison to the vehicle group. […]

T2 sequence (P00740 227-461 limits assumed): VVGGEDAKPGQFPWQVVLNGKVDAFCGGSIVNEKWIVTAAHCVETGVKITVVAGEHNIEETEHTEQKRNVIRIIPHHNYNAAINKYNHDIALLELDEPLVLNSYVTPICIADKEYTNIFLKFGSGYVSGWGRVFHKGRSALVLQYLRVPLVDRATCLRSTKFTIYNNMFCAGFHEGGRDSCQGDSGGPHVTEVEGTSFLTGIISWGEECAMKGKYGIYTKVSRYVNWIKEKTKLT
T2 sequence (P00740 47-191 partner limits assumed): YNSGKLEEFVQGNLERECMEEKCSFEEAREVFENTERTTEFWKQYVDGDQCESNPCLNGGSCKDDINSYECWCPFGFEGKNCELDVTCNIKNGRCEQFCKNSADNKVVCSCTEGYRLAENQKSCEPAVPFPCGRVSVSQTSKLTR
T1 sequence (P00748 373-615 limits assumed, other chains not shown): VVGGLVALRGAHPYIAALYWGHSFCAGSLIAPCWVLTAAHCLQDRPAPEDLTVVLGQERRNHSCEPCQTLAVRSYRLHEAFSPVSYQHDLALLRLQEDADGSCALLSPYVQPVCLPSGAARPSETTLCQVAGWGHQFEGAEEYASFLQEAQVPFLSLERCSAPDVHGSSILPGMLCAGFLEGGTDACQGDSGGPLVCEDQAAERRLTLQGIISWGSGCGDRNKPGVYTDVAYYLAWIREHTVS

Regarding `CC(C)(C)NC(=O)N1CCN(C(=O)N2C(=O)[C@H](CCCNC(=N)N)[C@H]2C(=O)O)CC1` [Example 4], the IC50 (usually the point on the concentration scale where inhibition reaches its midpoint) is above 33 µM on FXIIa, 17.4 µM against FIXa and 10.5 µM against human α-thrombin. For the same compound, the “Clotting time APTT (rat), concentration that doubles clotting time” value in the series with rat plasma was 2.1 µM. For the same compound, the “separation between bleeding time prolongation and efficacy in venous and arterial thrombosis” value in series [1] was “substantially greater separation”. Further, the “inhibition (reduction in thrombus weight)” value in series [2] (i.v. 0.2+0.2 mg/kg+mg/kg/hr, FIG. 3) was “about 38%”. Also, in series [2] (i.v. 0.2+0.2 to 6+6 mg/kg+mg/kg/hr), the “dose dependence of thrombus weight reduction” value was “Dose-dependent reductions”. In addition, in series [2] (i.v. 6+6 mg/kg+mg/kg/hr, FIG. 3), the “reduction in thrombus weight” value is on record as “approximately 90%”. In addition, in series [3], the “effect on mesenteric artery bleeding times” value is given as “no effect”.
